Data: ChEMBL document CHEMBL4507268 (2021)

Experiments:
Conditions in all cases: Compound concentration 1000.0 nM
[1] = target: RAC-beta serine/threonine-protein kinase (Homo sapiens) (UniProt P31751)
[2] = target: T1, Serine/threonine-protein kinase BRSK2 (Homo sapiens) (UniProt Q8IWQ3)
T1 sequence (whole entry): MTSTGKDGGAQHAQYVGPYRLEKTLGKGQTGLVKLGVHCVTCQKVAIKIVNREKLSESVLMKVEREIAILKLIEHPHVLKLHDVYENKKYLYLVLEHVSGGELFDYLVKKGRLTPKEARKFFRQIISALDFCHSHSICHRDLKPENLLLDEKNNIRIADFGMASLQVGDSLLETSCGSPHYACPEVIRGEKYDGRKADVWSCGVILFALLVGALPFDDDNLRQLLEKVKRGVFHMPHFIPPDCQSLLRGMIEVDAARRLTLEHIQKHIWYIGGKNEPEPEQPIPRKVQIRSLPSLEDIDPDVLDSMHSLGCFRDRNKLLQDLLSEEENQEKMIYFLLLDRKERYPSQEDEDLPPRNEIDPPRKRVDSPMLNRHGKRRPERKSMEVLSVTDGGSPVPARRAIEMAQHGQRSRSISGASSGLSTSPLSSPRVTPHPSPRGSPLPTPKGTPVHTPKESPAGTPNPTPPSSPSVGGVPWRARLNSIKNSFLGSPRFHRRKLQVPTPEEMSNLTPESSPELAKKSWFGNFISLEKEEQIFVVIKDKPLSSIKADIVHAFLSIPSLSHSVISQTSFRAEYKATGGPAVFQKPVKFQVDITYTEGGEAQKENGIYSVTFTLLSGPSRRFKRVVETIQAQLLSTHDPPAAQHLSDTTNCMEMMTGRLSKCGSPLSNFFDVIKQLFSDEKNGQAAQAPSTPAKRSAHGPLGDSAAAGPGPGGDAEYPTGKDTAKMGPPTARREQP

[3] = target: T2, Serine/threonine-protein kinase haspin (Homo sapiens) (UniProt Q8TF76)
T2 sequence (whole entry): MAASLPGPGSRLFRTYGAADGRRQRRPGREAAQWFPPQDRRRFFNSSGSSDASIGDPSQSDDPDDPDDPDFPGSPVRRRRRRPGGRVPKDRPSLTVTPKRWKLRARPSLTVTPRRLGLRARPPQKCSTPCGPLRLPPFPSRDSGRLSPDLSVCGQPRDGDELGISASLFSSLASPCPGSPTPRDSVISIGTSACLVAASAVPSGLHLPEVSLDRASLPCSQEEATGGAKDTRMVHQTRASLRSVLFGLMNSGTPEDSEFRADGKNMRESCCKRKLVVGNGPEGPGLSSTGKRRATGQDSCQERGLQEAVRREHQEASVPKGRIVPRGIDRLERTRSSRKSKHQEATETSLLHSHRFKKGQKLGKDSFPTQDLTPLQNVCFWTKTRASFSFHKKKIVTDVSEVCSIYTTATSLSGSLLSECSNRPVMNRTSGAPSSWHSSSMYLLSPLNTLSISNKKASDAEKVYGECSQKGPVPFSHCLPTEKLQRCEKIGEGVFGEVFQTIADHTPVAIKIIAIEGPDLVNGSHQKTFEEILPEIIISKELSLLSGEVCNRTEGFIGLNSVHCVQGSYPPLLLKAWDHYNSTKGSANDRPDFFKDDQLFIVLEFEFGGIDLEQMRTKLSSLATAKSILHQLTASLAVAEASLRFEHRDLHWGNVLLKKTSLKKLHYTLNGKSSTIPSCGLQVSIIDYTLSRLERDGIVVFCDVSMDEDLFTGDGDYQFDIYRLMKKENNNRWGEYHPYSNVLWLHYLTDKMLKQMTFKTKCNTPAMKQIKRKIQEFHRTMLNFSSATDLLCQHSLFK

[4] = target: Microtubule-associated serine/threonine-protein kinase 1 (Homo sapiens) (UniProt Q9Y2H9)
[5] = target: Dual specificity mitogen-activated protein kinase kinase 4 (Homo sapiens) (UniProt P45985)
[6] = target: Dual serine/threonine and tyrosine protein kinase (Homo sapiens) (UniProt Q6XUX3)
[7] = target: T3, Serine/threonine-protein kinase Sgk3 (Homo sapiens) (UniProt Q96BR1)
T3 sequence (whole entry): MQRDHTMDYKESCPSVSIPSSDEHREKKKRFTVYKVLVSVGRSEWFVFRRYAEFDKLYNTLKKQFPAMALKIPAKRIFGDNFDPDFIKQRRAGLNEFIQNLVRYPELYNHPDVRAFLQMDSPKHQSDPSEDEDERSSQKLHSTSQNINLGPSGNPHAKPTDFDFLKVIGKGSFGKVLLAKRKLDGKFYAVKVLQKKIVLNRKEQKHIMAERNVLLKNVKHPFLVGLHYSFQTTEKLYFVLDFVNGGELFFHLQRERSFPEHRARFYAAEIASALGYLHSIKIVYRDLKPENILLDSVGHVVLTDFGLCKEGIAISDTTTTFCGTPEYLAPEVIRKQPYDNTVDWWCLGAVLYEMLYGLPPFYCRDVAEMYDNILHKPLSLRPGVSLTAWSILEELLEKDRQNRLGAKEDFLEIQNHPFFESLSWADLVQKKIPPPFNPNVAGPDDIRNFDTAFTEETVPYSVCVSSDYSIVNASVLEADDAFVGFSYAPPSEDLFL

[8] = target: T4, Testis-specific serine/threonine-protein kinase 3 (Homo sapiens) (UniProt Q96PN8)
T4 sequence (whole entry): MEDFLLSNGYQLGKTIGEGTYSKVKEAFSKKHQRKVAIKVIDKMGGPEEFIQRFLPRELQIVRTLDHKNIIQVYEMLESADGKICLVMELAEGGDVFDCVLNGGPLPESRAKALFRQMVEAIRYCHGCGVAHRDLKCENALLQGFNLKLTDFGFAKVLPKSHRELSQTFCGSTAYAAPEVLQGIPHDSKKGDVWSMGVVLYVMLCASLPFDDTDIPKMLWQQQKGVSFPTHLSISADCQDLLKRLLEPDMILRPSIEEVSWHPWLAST

[9] = target: Tyrosine-protein kinase Yes (Homo sapiens) (UniProt P07947)

Measured: residual activity

Sequence of Dual specificity mitogen-activated protein kinase kinase 4 (Homo sapiens) (P45985 whole entry): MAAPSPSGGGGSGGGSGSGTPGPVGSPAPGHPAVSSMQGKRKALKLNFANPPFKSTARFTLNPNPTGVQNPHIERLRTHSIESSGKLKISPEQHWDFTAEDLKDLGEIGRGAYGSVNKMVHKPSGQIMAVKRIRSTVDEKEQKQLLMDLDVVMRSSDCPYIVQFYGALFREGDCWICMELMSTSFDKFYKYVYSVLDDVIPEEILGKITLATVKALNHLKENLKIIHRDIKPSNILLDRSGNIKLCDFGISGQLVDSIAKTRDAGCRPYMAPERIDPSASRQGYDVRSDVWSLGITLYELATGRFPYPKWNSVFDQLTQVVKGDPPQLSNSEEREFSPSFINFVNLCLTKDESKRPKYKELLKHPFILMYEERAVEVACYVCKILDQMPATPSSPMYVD
Sequence of Microtubule-associated serine/threonine-protein kinase 1 (Homo sapiens) (Q9Y2H9 whole entry, looked up): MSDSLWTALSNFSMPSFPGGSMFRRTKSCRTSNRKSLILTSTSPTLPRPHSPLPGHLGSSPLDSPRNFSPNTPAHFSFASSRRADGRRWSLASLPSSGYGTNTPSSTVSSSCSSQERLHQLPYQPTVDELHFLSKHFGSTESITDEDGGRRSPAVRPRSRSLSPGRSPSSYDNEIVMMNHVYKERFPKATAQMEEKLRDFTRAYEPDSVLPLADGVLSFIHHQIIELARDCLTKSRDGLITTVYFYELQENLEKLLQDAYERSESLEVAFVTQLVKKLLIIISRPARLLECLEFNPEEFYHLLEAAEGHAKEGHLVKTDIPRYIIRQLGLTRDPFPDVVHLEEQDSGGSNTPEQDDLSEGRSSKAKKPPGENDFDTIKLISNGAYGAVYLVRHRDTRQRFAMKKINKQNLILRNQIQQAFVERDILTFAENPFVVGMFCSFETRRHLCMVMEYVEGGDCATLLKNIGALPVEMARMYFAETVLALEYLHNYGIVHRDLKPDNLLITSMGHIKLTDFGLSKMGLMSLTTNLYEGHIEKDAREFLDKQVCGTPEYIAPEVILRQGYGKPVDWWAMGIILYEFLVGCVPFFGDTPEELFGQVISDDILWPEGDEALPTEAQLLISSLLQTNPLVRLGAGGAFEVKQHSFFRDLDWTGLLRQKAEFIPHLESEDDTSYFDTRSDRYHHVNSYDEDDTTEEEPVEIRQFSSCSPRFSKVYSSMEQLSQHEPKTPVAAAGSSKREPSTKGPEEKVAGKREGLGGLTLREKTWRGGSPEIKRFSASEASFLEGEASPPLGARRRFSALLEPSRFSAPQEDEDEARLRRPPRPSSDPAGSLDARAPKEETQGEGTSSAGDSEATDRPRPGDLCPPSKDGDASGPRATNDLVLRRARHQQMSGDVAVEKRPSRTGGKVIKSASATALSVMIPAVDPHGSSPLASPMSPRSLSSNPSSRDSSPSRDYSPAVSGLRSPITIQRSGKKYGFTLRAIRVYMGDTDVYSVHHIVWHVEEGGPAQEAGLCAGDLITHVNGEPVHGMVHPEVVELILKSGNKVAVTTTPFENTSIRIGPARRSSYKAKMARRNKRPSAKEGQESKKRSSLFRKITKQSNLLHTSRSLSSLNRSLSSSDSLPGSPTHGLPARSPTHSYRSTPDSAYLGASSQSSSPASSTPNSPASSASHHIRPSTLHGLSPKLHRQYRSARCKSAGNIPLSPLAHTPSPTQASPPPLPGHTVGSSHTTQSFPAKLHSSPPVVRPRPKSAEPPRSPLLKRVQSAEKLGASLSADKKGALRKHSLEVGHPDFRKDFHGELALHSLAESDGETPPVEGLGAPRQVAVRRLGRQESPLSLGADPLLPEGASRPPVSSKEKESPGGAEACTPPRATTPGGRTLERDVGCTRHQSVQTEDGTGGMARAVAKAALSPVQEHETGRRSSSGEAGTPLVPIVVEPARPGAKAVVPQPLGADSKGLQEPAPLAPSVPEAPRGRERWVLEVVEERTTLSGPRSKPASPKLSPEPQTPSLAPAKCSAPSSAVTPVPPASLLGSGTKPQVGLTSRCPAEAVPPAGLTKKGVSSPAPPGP
Sequence of RAC-beta serine/threonine-protein kinase (Homo sapiens) (P31751 whole entry): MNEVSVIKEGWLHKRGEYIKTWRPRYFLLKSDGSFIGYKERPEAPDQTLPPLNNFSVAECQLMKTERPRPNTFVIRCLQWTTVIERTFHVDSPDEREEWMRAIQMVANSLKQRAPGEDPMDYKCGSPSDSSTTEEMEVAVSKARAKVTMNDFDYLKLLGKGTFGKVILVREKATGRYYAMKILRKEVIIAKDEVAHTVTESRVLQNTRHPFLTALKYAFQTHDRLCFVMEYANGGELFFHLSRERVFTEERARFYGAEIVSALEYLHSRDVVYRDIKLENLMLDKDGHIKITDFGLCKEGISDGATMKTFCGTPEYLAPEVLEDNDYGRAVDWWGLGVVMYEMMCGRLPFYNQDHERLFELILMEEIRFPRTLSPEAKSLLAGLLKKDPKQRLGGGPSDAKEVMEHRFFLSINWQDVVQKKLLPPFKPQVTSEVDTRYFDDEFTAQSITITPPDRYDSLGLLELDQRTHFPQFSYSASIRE
Sequence of Dual serine/threonine and tyrosine protein kinase (Homo sapiens) (Q6XUX3 whole entry): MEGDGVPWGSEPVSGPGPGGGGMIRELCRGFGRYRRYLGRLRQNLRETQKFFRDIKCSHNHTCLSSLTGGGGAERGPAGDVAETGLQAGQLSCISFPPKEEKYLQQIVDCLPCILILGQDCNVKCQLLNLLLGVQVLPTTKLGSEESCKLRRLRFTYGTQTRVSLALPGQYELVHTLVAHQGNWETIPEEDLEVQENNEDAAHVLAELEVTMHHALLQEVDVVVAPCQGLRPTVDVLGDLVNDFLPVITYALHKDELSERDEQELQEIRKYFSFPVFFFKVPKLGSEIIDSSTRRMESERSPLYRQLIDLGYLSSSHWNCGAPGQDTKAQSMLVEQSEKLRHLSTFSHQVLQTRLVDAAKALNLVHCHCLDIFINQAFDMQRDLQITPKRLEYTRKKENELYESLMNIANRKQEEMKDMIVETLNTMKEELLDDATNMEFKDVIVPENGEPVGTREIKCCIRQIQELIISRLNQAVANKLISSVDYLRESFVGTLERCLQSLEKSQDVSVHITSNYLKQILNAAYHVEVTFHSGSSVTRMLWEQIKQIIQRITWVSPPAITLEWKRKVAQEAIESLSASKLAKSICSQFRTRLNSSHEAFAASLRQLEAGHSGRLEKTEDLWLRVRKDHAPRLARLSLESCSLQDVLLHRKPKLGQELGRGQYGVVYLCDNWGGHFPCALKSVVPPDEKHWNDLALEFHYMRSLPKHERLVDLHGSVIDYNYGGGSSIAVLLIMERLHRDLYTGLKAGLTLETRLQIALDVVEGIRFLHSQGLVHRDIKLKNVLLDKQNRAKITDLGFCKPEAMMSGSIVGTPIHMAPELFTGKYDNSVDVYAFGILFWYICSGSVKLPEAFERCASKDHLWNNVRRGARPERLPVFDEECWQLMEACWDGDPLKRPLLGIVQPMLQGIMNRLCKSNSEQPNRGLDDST
Sequence of Tyrosine-protein kinase Yes (Homo sapiens) (P07947 2-543 limits assumed): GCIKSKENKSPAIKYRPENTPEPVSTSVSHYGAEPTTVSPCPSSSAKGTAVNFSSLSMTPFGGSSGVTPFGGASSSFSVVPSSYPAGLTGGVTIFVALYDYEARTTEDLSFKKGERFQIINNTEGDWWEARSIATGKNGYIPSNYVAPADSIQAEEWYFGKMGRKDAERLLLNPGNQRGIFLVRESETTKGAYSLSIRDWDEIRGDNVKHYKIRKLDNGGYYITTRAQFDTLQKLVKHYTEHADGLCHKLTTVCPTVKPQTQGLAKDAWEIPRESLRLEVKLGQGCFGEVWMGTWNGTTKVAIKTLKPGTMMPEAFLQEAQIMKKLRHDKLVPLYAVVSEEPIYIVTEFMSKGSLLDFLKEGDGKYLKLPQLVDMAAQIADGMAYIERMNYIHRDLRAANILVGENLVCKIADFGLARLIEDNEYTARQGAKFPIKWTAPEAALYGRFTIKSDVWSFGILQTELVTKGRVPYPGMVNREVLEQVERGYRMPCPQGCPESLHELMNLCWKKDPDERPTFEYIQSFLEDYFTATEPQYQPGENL

Cc1nc(C2CCN(C(=O)c3ccc(OC(F)(F)F)cc3N)CC2)c2ncc(N3CCN(C)CC3)cc2n1 [BAY-693]
inactive: [1] 100% | [2] 100% | [3] 100% | [4] 100% | [5] 100% | [6] 95% | [7] 93% | [8] 100% | [9] 100%

CN1CCN(c2cnc3c(C4CCN(C(=O)c5ccc(OC(F)(F)F)cc5N)CC4)ncnc3c2)CC1 [BAY-885]
inactive: [1] 100% | [2] 100% | [3] 100% | [4] 100% | [5] 100% | [6] 100% | [7] 100% | [8] 68% | [9] 100%
